Results on 23 compounds are retold here after patent US20250171457A1, “NITROGEN-CONTAINING HETEROCYCLIC COMPOUND HAVING NRF2 ACTIVATION EFFECT” (CHUGAI SEIYAKU KABUSHIKI KAISHA, priority 2022, published 2025).

The subject of the experiment is Nrf2 transcriptional activity (pARE-Luc reporter) in HepG2 cells. The experiment in a line: In vitro Nrf2 transcriptional activity measurement by ARE-dependent reporter assay in HepG2 cell. Format: cell-based, human. To be noted: Homo sapiens; HepG2 cells transfected with pARE-Luc, 4 hours at 37° C.; luciferase activity of Example 1-54 or Example 17-23 at 3.75 μM defined as 100%. The gist of the method: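 Luminescence readout (Bright-Glo) after 4 h, 37° C compound exposure of HepG2 cells carrying the ARE-luciferase vector pGL4.37. Each well converted to % response versus reference compound at 3.75 μM, and EC50 derived from dose-response curves.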
In turn, `C[C@@H]1CNCCN1c1cc(Cl)c(C(=O)N2COc3c(cccc3-c3cc(N4C5CCC4COC5)c(C(=O)O)cc3F)C2)c(Cl)c1` [Compound 9-25, 4-[3-[2,6-Dichloro-4-[(2R)-2-methylpiperazin-1-yl]benzoyl]-2,4-dihydro-1,3-benzoxazin-8-yl]-5-fluoro-2-(3-oxa-8-azabicyclo[3.2.1]octan-8-yl)benzoic acid] displayed an EC50 of 8.8 nM.

`CN1CCC2(C1)CN(c1cc(Cl)c(C(=O)N3COc4c(cccc4-c4cc(N5C6CCC5COC6)c(C(=O)O)cc4F)C3)c(Cl)c1)C2` [Compound 10-1, 4-[3-[2,6-Dichloro-4-(7-methyl-2,7-diazaspiro[3.4]octan-2-yl)benzoyl]-2,4-dihydro-1,3-benzoxazin-8-yl]-5-fluoro-2-(3-oxa-8-azabicyclo[3.2.1]octan-8-yl)benzoic acid] displayed a 50% effective concentration (EC50) of 6.5 nM.

Consider `O=C(O)c1cc(F)c(-c2cccc3c2OCN(C(=O)c2c(Cl)cc(N4CC5(CCN(C6COC6)C5)C4)cc2Cl)C3)cc1N1C2CCC1COC2` [Compound 10-2, 4-[3-[2,6-Dichloro-4-[7-(oxetan-3-yl)-2,7-diazaspiro[3.4]octan-2-yl]benzoyl]-2,4-dihydro-1,3-benzoxazin-8-yl]-5-fluoro-2-(3-oxa-8-azabicyclo[3.2.1]octan-8-yl)benzoic acid], for which the EC50 amounted to 5.2 nM.

Regarding `C[C@@H]1CN(c2cc(Cl)c(C(=O)N3COc4c(cccc4-c4cc(N5C6CCC5COC6)c(C(=O)O)cc4F)C3)c(Cl)c2)CCN1C` [Compound 10-3, 4-[3-[2,6-Dichloro-4-[(3R)-3,4-dimethylpiperazin-1-yl]benzoyl]-2,4-dihydro-1,3-benzoxazin-8-yl]-5-fluoro-2-(3-oxa-8-azabicyclo[3.2.1]octan-8-yl)benzoic acid], the midpoint of the response, the EC50, lay at 1.5 nM.

On to `C[C@@H]1CN(c2cc(Cl)c(C(=O)N3COc4c(cccc4-c4cc(N5C6CCC5COC6)c(C(=O)O)cc4F)C3)c(Cl)c2)C[C@H](C)N1C` [Compound 10-4], for which the midpoint of the response, the EC50, lay at 4.8 nM.

The compound `C[C@H]1CN(c2cc(Cl)c(C(=O)N3COc4c(cccc4-c4cc(N5C6CCC5COC6)c(C(=O)O)cc4F)C3)c(Cl)c2)CCN1C` [Compound 10-5, 4-[3-[2,6-Dichloro-4-[(3S)-3,4-dimethylpiperazin-1-yl]benzoyl]-2,4-dihydro-1,3-benzoxazin-8-yl]-5-fluoro-2-(3-oxa-8-azabicyclo[3.2.1]octan-8-yl)benzoic acid] showed an EC50 of 4.3 nM.

In turn, `CN1CCN(c2cc(Cl)c(C(=O)N3COc4c(cccc4-c4cc(N5C6CCC5COC6)c(C(=O)O)cc4F)C3)c(Cl)c2)CC1(C)C` [Compound 10-6, 4-[3-[2,6-Dichloro-4-(3,3,4-trimethylpiperazin-1-yl)benzoyl]-2,4-dihydro-1,3-benzoxazin-8-yl]-5-fluoro-2-(3-oxa-8-azabicyclo[3.2.1]octan-8-yl)benzoic acid] came in with a half-maximal effective concentration (EC50) of 9.1 nM. Compared with the last compound, the EC50 is about 2.1-fold higher.

Compound `O=C(O)c1cc(F)c(-c2cccc3c2OCN(C(=O)c2c(Cl)cc(N4C[C@@H]5C[C@H]4CN5C4COC4)cc2Cl)C3)cc1N1C2CCC1COC2` [Compound 10-7, 4-[3-[2,6-Dichloro-4-[(1S,4S)-5-(oxetan-3-yl)-2,5-diazabicyclo[2.2.1]heptan-2-yl]benzoyl]-2,4-dihydro-1,3-benzoxazin-8-yl]-5-fluoro-2-(3-oxa-8-azabicyclo[3.2.1]octan-8-yl)benzoic acid] had an EC50 of 23 nM.

For `C[C@@H]1CN(c2cc(Cl)c(C(=O)N3COc4c(cccc4-c4cc(N5C6CCC5COC6)c(C(=O)O)cc4F)C3)c(Cl)c2)CCN1C1COC1` [Compound 10-8, 4-[3-[2,6-Dichloro-4-[(3R)-3-methyl-4-(oxetan-3-yl)piperazin-1-yl]benzoyl]-2,4-dihydro-1,3-benzoxazin-8-yl]-5-fluoro-2-(3-oxa-8-azabicyclo[3.2.1]octan-8-yl)benzoic acid], the EC50 was 1.5 nM. Against the preceding compound, the EC50 is about 15-fold lower.

`O=C(O)c1cc(F)c(-c2cccc3c2OCN(C(=O)c2c(Cl)cc(N4CCCN(C5COC5)CC4)cc2Cl)C3)cc1N1CCOCC1` [Compound 10-9, 4-[3-[2,6-Dichloro-4-[4-(oxetan-3-yl)-1,4-diazepan-1-yl]benzoyl]-2,4-dihydro-1,3-benzoxazin-8-yl]-5-fluoro-2-morpholin-4-ylbenzoic acid] registered an EC50 of 1.2 nM.

For `CN1C[C@@H]2C[C@H]1CN2c1cc(Cl)c(C(=O)N2COc3c(cccc3-c3cc(N4C5CCC4COC5)c(C(=O)O)cc3F)C2)c(Cl)c1` [Compound 10-10, 4-[3-[2,6-Dichloro-4-[(1S,4S)-5-methyl-2,5-diazabicyclo[2.2.1]heptan-2-yl]benzoyl]-2,4-dihydro-1,3-benzoxazin-8-yl]-5-fluoro-2-(3-oxa-8-azabicyclo[3.2.1]octan-8-yl)benzoic acid], the EC50 turned out to be 25 nM.

In turn, `O=C(O)c1cc(F)c(-c2cccc3c2OCN(C(=O)c2c(Cl)cc(N4CC5(C4)CN(C4COC4)C5)cc2Cl)C3)cc1N1CCOCC1` [Compound 10-11, 4-[3-[2,6-Dichloro-4-[2-(oxetan-3-yl)-2,6-diazaspiro[3.3]heptan-6-yl]benzoyl]-2,4-dihydro-1,3-benzoxazin-8-yl]-5-fluoro-2-morpholin-4-ylbenzoic acid] gave an EC50 of 2.4 nM.

Turning to `CN1CC2(C1)CN(c1cc(Cl)c(C(=O)N3COc4c(cccc4-c4cc(N5CCOCC5)c(C(=O)O)cc4F)C3)c(Cl)c1)C2` [Compound 10-12, 4-[3-[2,6-Dichloro-4-(6-methyl-2,6-diazaspiro[3.3]heptan-2-yl)benzoyl]-2,4-dihydro-1,3-benzoxazin-8-yl]-5-fluoro-2-morpholin-4-ylbenzoic acid], a half-maximal response (EC50) required 1.2 nM. This EC50 is about 2-fold lower than that of the compound before.

The compound `CC(C)N1CCC(Oc2cc(Cl)c(C(=O)N3COc4c(cccc4-c4ccc(C(=O)O)c(N5CCOCC5)c4)C3)c(Cl)c2)CC1` [Compound 10-13, 4-[3-[2,6-Dichloro-4-(1-propan-2-ylpiperidin-4-yl)oxybenzoyl]-2,4-dihydro-1,3-benzoxazin-8-yl]-2-morpholin-4-ylbenzoic acid] returned an EC50 of 4.2 nM.

As for `COC1CN(C2CC3(C2)CN(c2cc(Cl)c(C(=O)N4COc5c(cccc5-c5cc(N6C7CCC6COC7)c(C(=O)O)cc5F)C4)c(Cl)c2)C3)C1` [Compound 11-1, 4-[3-[2,6-Dichloro-4-[6-(3-methoxyazetidin-1-yl)-2-azaspiro [3.3]heptan-2-yl]benzoyl]-2,4-dihydro-1,3-benzoxazin-8-yl]-5-fluoro-2-(3-oxa-8-azabicyclo [3.2.1]octan-8-yl)benzoic acid], the EC50 is 3.6 nM. This EC50 and that of the compound before are within 1.5-fold of each other.

The compound `COC1(C)CN(C2CN(c3cc(Cl)c(C(=O)N4COc5c(cccc5-c5cc(N6C7CCC6COC7)c(C(=O)O)cc5F)C4)c(Cl)c3)C2)C1` [Compound 11-2, 4-[3-[2,6-Dichloro-4-[3-(3-methoxy-3-methylazetidin-1-yl)azetidin-1-yl]benzoyl]-2,4-dihydro-1,3-benzoxazin-8-yl]-5-fluoro-2-(3-oxa-8-azabicyclo [3.2.1]octan-8-yl)benzoic acid] yielded a 50% effective concentration (EC50) of 4.2 nM.

As to `O=C(O)c1cc(F)c(-c2cccc3c2OCN(C(=O)c2c(Cl)cc(N4CC(n5cccn5)C4)cc2Cl)C3)cc1N1C2CCC1COC2` [Compound 11-3, 4-[3-[2,6-Dichloro-4-(3-pyrazol-1-ylazetidin-1-yl)benzoyl]-2,4-dihydro-1,3-benzoxazin-8-yl]-5-fluoro-2-(3-oxa-8-azabicyclo[3.2.1]octan-8-yl)benzoic acid], the 50% effective concentration (EC50) is 9.5 nM. This EC50 lies about 2.3-fold higher than the previous one.

As to `O=C(O)c1cc(F)c(-c2cccc3c2OCN(C(=O)c2c(Cl)cc(N4CC(N5CC(OC(F)F)C5)C4)cc2Cl)C3)cc1N1C2CCC1COC2` [Compound 11-4, 4-[3-[2,6-Dichloro-4-[3-[3-(difluoromethoxy)azetidin-1-yl]azetidin-1-yl]benzoyl]-2,4-dihydro-1,3-benzoxazin-8-yl]-5-fluoro-2-(3-oxa-8-azabicyclo[3.2.1]octan-8-yl)benzoic acid], the response was half-maximal at 2 nM (EC50).

In the case of `COC1CN(C2(C)CN(c3cc(Cl)c(C(=O)N4COc5c(cccc5-c5cc(N6C7CCC6COC7)c(C(=O)O)cc5F)C4)c(Cl)c3)C2)C1` [Compound 11-5, 4-[3-[2,6-Dichloro-4-[3-(3-methoxyazetidin-1-yl)-3-methylazetidin-1-yl]benzoyl]-2,4-dihydro-1,3-benzoxazin-8-yl]-5-fluoro-2-(3-oxa-8-azabicyclo[3.2.1]octan-8-yl)benzoic acid], a half-maximal response (EC50) required 2 nM. This counts as single-digit nanomolar.

For the compound `CC1(N2CCOCC2)CN(c2cc(Cl)c(C(=O)N3COc4c(cccc4-c4cc(N5C6CCC5COC6)c(C(=O)O)cc4F)C3)c(Cl)c2)C1` [Compound 11-6, 4-[3-[2,6-Dichloro-4-(3-methyl-3-morpholin-4-ylazetidin-1-yl)benzoyl]-2,4-dihydro-1,3-benzoxazin-8-yl]-5-fluoro-2-(3-oxa-8-azabicyclo[3.2.1]octan-8-yl)benzoic acid], it took 2.4 nM to reach a half-maximal effect (EC50). The EC50 values of the last two compounds are within 1.5-fold of each other.

In the case of `O=C(O)c1cc(F)c(-c2cccc3c2OCN(C(=O)c2c(Cl)cc(N4CC(N5CC(OC(F)(F)F)C5)C4)cc2Cl)C3)cc1N1C2CCC1COC2` [Compound 11-7, 4-[3-[2,6-Dichloro-4-[3-[3-(trifluoromethoxy)azetidin-1-yl]azetidin-1-yl]benzoyl]-2,4-dihydro-1,3-benzoxazin-8-yl]-5-fluoro-2-(3-oxa-8-azabicyclo [3.2.1]octan-8-yl)benzoic acid], the response was half-maximal at 5.2 nM (EC50).

In the case of `O=C(O)c1cc(F)c(-c2cccc3c2OCN(C(=O)c2c(Cl)cc(N4CC(N5CC(F)(F)C5)C4)cc2Cl)C3)cc1N1C2CCC1COC2` [Compound 11-8, 4-[3-[2,6-Dichloro-4-[3-(3,3-difluoroazetidin-1-yl)azetidin-1-yl]benzoyl]-2,4-dihydro-1,3-benzoxazin-8-yl]-5-fluoro-2-(3-oxa-8-azabicyclo[3.2.1]octan-8-yl)benzoic acid], the EC50 is 3.1 nM.

As to `O=C(O)c1cc(F)c(-c2cccc3c2OCN(C(=O)c2c(Cl)cc(N4CC(N5CC(F)C5)C4)cc2Cl)C3)cc1N1C2CCC1COC2` [Compound 11-9, 4-[3-[2,6-Dichloro-4-[3-(3-fluoroazetidin-1-yl)azetidin-1-yl]benzoyl]-2,4-dihydro-1,3-benzoxazin-8-yl]-5-fluoro-2-(3-oxa-8-azabicyclo[3.2.1]octan-8-yl)benzoic acid], the EC50 worked out at 2.7 nM.

By EC50 is commonly meant the concentration giving half of the maximal effect. A high value points to lower potency in that assay.
